Experimental data taken from paper PMC7830758, “Revisiting the Rate-Limiting Step of the ANS–Protein Binding at the Protein Surface and Inside the Hydrophobic Cavity” (Molecules, 2021).

Legend:
lysozyme = biological target: T1, lysozyme (Gallus gallus, UniProt P00698); assay: ANS fluorescence titrated with protein, MCR-ALS scores, one-site fit; type: binding; conditions: read-out: K (converted)
T1 construct: gene LYZ

[1] = biological target: T2, bovine serum albumin (BSA) (Bos taurus, UniProt P02769); assay: as above; type: binding; conditions: read-out: K (converted)
T2 construct: gene ALB
T2 sequence (P02769 25-607): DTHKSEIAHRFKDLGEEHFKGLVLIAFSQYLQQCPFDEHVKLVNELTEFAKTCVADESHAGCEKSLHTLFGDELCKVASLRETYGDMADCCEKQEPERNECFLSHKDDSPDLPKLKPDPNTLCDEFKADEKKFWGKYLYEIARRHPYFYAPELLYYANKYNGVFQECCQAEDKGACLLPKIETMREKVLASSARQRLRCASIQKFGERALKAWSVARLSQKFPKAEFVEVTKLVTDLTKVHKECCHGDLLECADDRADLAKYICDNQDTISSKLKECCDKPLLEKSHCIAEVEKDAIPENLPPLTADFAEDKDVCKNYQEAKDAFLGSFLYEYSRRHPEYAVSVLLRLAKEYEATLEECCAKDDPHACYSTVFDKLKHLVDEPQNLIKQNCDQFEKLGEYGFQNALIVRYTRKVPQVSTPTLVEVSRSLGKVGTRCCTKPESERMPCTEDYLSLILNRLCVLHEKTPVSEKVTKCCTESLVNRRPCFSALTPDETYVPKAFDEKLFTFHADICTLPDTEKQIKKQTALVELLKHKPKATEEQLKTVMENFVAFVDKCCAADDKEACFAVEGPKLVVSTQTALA

T1 sequence (P00698 19-147): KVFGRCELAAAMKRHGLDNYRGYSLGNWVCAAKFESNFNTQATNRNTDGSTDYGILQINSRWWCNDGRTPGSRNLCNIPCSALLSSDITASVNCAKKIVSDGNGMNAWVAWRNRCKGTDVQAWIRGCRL

Kd (lysozyme): 172 µM
Kd [1]: 1.06 µM
Compound: O=S(=O)(O)c1cccc2cccc(Nc3ccccc3)c12 [8-Anilino-1-naphthalenesulfonic acid]
